Experimental findings from US20230012172A1, “COMPOSITIONS AND METHODS FOR TREATMENT OF PLATINUM-BASED CHEMOTHERAPEUTIC RESISTANT TUMORS” (The George Washington University, priority 2020, published 2023) are described below.

The target of experiment [1] is T1, SENP1 (Homo sapiens, UniProt Q9P0U3).
T1 sequence (Q9P0U3 1-644): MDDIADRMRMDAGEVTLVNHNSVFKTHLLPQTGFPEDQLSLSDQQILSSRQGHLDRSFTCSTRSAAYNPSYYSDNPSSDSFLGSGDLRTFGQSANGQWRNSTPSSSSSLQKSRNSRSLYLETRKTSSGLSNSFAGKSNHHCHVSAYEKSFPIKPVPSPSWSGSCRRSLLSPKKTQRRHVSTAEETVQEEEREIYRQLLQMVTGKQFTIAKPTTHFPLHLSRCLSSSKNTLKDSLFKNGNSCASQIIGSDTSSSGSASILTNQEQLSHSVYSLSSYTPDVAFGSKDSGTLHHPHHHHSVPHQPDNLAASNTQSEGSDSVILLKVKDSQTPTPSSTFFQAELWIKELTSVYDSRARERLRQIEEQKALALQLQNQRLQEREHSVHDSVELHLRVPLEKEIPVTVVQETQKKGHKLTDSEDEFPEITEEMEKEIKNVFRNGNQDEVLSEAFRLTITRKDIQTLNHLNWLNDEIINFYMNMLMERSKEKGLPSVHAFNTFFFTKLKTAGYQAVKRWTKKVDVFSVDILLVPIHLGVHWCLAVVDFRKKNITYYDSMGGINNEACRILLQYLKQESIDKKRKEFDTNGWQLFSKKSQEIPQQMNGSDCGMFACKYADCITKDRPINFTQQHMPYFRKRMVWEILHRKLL
Put plainly: SENP1 inhibition in IGROV1 cells (SUMOylated JAK2, Western blot). Particulars: incubated 48 hours, read-out: inhibited deSUMOylation of JAK2 with IC50. The arrangement: endogenous in cells; host or cells: IGROV1. The format is cell-based. Here is the method: FIGS. 11A-11L depict images illustrating identification of a novel potent SENP1 inhibitor, UA. FIGS. 11A and 11B show Mc (FIG. 11A) and UA (FIG. 11B) inhibited SENP1 activity in vivo. IGROV1 cells were incubated with Mc or UA for 48 hours and harvested for Western blot for indicated proteins. […]. Intensity of SUMOylated JAK2 in B was measured by Quantity One software. FIGS. 11D and 11E show Mc (FIG. 11D) and UA (FIG. 11E) inhibited SENP1 activity in vitro. Recombinant His-JAK2 was SUMOylated as in FIG. 2F, followed by incubation with recombinant GST-SENP1 together with Mc or UA for 3 hours (h). […]. Intensity of SUMOylated JAK2 was measured by Quantity One software. […] SENP1 stability was analyzed using Western blot against SENP1 antibody in IGROV1 cells. […] SENP1 stability was analyzed by using Western blot against SENP1 antibody. […] Green: UA; Salmon: interface. Right panel, active residues of SENP1 for SENP1:UA complex. Green: UA; Salmon: active residues. […] Stability of SENP1-C603A was analyzed by using Western blot against SENP1 antibody
To determine the functional consequence of SENP1-JAK2 interaction, it was examined whether inhibition of SENP1 affected SUMOylation of JAK2. To this end, JAK2 was immunoprecipitated and the SUMOylation level of JAK2 was evaluated using an antibody against SUMO2/3 in SENP1 depleted cells.
In general terms: A western blot detects proteins with antibodies after separation by electrophoresis.

Experiment [2] addresses T1, SENP1. Put plainly: In vitro deSUMOylation assay with recombinant His-JAK2 and GST-SENP1. The format is biochemical. More on the design: made in house; host or cells: E. coli BL21 (DE3) for pET28a-JAK2. The protocol: To further determine whether SENP1 can directly deSUMOylate JAK2, in vitro deSUMOylation assays were performed by using purified recombinant His-JAK2 and GST-SENP1 proteins.
In vitro SUMOylation assay. The SUMOylation reactions were performed according to the manufacture's instruction (BML-UW8955-0001; ENZO). Briefly, 200 nM of purified HIS-JAK2 was suspended in reaction buffer (20 μl) containing Mg-ATP, SUMO E1, SUMO E2 and recombinant SUMOs. RanGAP1 (provided in the kit) was used as the substrate for positive control. The reaction was incubated at 37° C. for 60 minutes and terminated by using 20 μl of SDS loading buffer. […] The reactions were then subjected to Western blot to evaluate SUMOylation level.
Protein expression and purification. pET28a-JAK2 and its mutant was transformed in BL21 (DE3) E. coli cells by heat shot method at 42° C. and grown in Luria Broth (LB) at 37° C. E. coli cells were induced with 0.5 mM IPTG to induct protein expression. Cells were harvested by centrifugation at 5,000 g, 4° C. for 15 min and the pellet was resuspended in lysis buffer (20 mM Tris pH 7.9, 500 mM NaCl, 5 mM imidazole, 2 mM DTT and 1× protease inhibitor cocktail). Cells were then sonicated and centrifuged at 14,000 g, 4° C. for 15 min. 1 ml of Ni-NTA was added to the supernatant and incubated at 4° C. with end-to-end mixing for 2 hours and subjected to a column. The Ni-NTA resin was washed with 10 ml wash buffer (20 mM Tris pH 7.9, 250 mM NaCl, 15 mM Imidazole and 0.5 mM DTT) and eluted with 1 ml elution buffer (20 mM Tris pH 7.9, 250 mM NaCl and 1 M imidazole). The elute was then concentrated by using a protein concentrator (Thermo Scientific™ Pierce™) and resuspend in dialysis buffer (50 mM Tris pH 7.9, 50 mM NaCl, 2 mM DTT, and 10% glycerol). The purified protein was stored at −80° C. pGEX-4T1-SENP1 and its mutant were purified using following buffers: lysis buffer (1 mM DTT, and lx protease inhibitor cocktail, 800 mM NaCl, 5 mM EDTA, 50 mM Tris-pH8.0, 0.1% Triton x-100), wash buffer (800 mM NaCl, 5 mM EDTA, 50 mM Tris-pH8.0, 0.1% Triton x-100), elution buffer (40 mM glutathione, 800 mM NaCl, 5 mM EDTA, 50 mM Tris-pH8.0, 0.1% Triton x-100), dialysis buffer (50 mM Tris pH 7.9, 50 mM NaCl, 2 mM DTT, and 10% glycerol).

[3] abbreviates: recombinant GST-SENP1, 3 hours, read-out: IC50 to inhibit deSUMOylation of His-JAK2 in vitro.

Usually IC50 stands for the concentration needed to halve the response being measured. As for `CC1(C)CC[C@]2(C(=O)O)CC[C@]3(C)C(=CC[C@@H]4[C@@]5(C)CC[C@H](O[C@@H]6O[C@H](C(=O)O)[C@@H](O)[C@H](O[C@@H]7OC[C@@H](O)[C@H](O)[C@H]7O)[C@H]6O)C(C)(C)[C@@H]5CC[C@]43C)[C@@H]2C1` [Mc, Momordin Ic], the IC50 at SENP1 [1] amounted to 31.8 µM; on SENP1 [2] (in vitro, read-out: SENP1 activity was inhibited with IC50), 15.4 µM; on SENP1 [2] (setting [3]) it was 19.9 µM.
`C[C@H]1[C@H](C)CC[C@]2(C(=O)O)CC[C@]3(C)C(=CC[C@@H]4[C@@]5(C)CC[C@H](O)C(C)(C)[C@@H]5CC[C@]43C)[C@H]12` [UA, ursolic acid]: the IC50 is 0.24 µM at SENP1 [1] and 0.0064 µM on SENP1 [2] (setting [3]). The “fold more potency to inhibit deSUMOylation of His-JAK2 in vitro than Mc” value at SENP1 [2] (UA versus Mc) turned out to be 3000 fold.
